The text below walks through data of patent US10988477B2 (Merck Patent GmbH, priority 2018, dated 2021).

The target of the assay is GCN2 kinase (Homo sapiens, UniProt Q9P2K8). The experiment in a line: GCN2 enzyme inhibition assay (Transcreener ADP2 fluorescence polarization). Type of assay: biochemical. Particulars: compounds of Formula II; 280 μM ATP, 4 nM GCN2 kinase. The protocol: Compounds were screened for their ability to inhibit GCN2 kinase activity using a Transcreener® ADP^2 fluorescence polarization assay that detects ADP levels (BellBrook Labs, WI). Assays were carried out in a buffer consisting of 25 mM Tris-HCl (pH 7.5), 50 mM NaCl, 10 mM MgCl2 and 1 mM DTT. Final substrate concentrations were 280 μM ATP and 200 μM peptidic substrate ([…]-OH [(RS)7], Bachem, Switzerland). Assays were carried out at 25° C. in the presence of a (typical) final concentration of 4 nM GCN2 kinase. An assay buffer containing GCN2 kinase and (RS)7 was prepared. 4.7 μL of this stock solution was placed per well of a black, low volume, 384-well microtitre plate (e.g. catalogue number 3676, Corning Inc., NY). To this was added […] of DMSO containing serial dilutions of the test compound (typical final concentrations of test compound were 0 to 8 μM). The plate was incubated for 10 minutes at 25° C. prior to the addition of 4.7 μL of ATP stock buffer to initiate the enzyme reaction. The reaction was allowed to proceed for 1 hour at 25° C., prior to the addition of 10 μL detection buffer (consisting of appropriate concentrations of ADP^2 antibody and ADP Alexa633 tracer in 1× stop and detect buffer as supplied by BellBrook Labs). […] Percentage inhibition of enzyme activity was then calculated at each compound dose. IC50 and Ki(app) (using known assay and kinetic parameters) values were calculated from percentage inhibition data using a non-linear, tight-binding algorithm. All data analysis was undertaken using the Screener® software package (Genedata, Switzerland).
GCN2 kinase, sequence (Q9P2K8 whole entry): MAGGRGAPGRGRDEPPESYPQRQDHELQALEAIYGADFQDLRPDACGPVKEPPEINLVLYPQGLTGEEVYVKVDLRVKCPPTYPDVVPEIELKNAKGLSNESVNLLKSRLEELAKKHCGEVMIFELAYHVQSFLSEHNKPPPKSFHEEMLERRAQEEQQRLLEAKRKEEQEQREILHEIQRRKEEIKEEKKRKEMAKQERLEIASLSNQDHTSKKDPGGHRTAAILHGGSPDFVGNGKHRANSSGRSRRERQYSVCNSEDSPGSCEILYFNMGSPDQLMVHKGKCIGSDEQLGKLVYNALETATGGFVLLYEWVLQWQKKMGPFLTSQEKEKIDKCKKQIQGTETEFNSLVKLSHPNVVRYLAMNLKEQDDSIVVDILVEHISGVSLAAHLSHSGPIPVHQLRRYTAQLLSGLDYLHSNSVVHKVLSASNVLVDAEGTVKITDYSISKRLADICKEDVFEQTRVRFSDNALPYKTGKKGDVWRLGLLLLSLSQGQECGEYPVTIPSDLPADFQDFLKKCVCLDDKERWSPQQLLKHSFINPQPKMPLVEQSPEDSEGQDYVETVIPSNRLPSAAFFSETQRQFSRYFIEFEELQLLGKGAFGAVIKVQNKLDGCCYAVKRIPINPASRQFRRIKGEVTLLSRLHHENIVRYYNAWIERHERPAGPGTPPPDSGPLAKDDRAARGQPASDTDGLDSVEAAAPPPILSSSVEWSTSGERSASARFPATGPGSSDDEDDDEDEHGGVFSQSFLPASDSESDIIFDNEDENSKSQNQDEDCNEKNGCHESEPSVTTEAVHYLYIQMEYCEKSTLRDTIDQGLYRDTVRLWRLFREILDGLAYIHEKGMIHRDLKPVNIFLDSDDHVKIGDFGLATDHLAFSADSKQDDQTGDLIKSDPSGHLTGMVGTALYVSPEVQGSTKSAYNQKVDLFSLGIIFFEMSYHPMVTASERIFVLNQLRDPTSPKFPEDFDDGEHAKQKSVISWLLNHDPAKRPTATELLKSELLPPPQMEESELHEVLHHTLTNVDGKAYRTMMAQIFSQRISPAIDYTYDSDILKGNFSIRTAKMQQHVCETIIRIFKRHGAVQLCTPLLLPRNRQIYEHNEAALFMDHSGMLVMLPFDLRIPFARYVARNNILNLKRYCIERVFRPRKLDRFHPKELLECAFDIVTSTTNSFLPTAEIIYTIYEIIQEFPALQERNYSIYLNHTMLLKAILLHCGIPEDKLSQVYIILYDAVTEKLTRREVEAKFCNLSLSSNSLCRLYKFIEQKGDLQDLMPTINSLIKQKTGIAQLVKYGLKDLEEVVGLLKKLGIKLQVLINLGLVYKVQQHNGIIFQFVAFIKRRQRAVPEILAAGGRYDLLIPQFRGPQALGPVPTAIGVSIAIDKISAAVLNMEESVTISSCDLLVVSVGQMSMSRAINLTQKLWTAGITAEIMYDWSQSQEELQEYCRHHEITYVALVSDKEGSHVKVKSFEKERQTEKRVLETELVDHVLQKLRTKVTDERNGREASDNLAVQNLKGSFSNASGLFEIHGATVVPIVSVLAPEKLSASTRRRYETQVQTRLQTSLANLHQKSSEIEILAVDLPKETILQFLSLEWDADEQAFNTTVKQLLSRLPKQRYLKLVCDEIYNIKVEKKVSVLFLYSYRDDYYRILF
`C[C@@H]1C[C@H](CO)[C@H](C)N(c2cc(-c3cnc4ccc(C(F)F)nn34)ncn2)C1` (single isomer, unassigned) [II-585] displayed a Ki below 10 nM.

In turn, `CC1CC(CO)C(C)N(c2cc(-c3cnc4ccc(C(F)F)nn34)ncn2)C1` (single isomer, unassigned) [II-586, (1-(6-(6-(Difluoromethyl)imidazo[1,2-b]pyridazin-3-yl)pyrimidin-4-yl)-2,5-dimethylpiperidin-3-yl)methanol] showed a Ki of 10 to 1000 nM.

The compound `CC1C(N=S(C)(C)=O)CCCN1c1cc(-c2cnc3ccc(C(F)F)nn23)ncn1` (single isomer, unassigned) [II-594, ((1-(6-(6-(Difluoromethyl)imidazo[1,2-b]pyridazin-3-yl)pyrimidin-4-yl)-2-methylpiperidin-3-yl)imino)dimethyl-λ^6-sulfanone] showed a Ki of 10 to 1000 nM.

For the compound `CC(C)(O)C1CCCN(c2cc(-c3cnc4ccc(C(F)F)nn34)ncn2)C1` (single isomer, unassigned) [II-613, 2-(1-(6-(6-(Difluoromethyl)imidazo[1,2-b]pyridazin-3-yl)pyrimidin-4-yl)piperidin-3-yl)propan-2-ol], the Ki was in the range of 10 to 1000 nM.

The compound `CC(C)(O)C1CCCN(c2cc(-c3cnc4ccc(C(F)F)nn34)ncn2)C1` (single isomer, unassigned) [II-614, 2-(1-(6-(6-(Difluoromethyl)imidazo[1,2-b]pyridazin-3-yl)pyrimidin-4-yl)piperidin-3-yl)propan-2-ol] registered a Ki of 10 to 1000 nM.

Compound `CC1CC(CS(C)(=O)=O)C(C)N(c2cc(-c3cnc4ccc(C(F)F)nn34)ncn2)C1` (single isomer, unassigned) [II-625, 6-(Difluoromethyl)-3-[6-[2,5-dimethyl-3-(methylsulfonylmethyl)-1-piperidyl]pyrimidin-4-yl]imidazo[1,2-b]pyridazine] returned an inhibition constant (Ki) of 10 to 1000 nM.

The compound `CC1CC(CS(C)(=O)=O)C(C)N(c2cc(-c3cnc4ccc(C(F)F)nn34)ncn2)C1` (single isomer, unassigned) [II-626, 6-(difluoromethyl)-3-[6-[2,5-dimethyl-3-(methylsulfonylmethyl)-1-piperidyl]pyrimidin-4-yl]imidazo[1,2-b]pyridazine] gave a Ki below 10 nM.

For `CC1CC(N=S(C)(C)=O)C(C)N(c2cc(-c3cnc4ccc(C(F)F)nn34)ncn2)C1` (single isomer, unassigned) [II-630, ((1-(6-(6-(Difluoromethyl)imidazo[1,2-b]pyridazin-3-yl)pyrimidin-4-yl)-2,5-dimethylpiperidin-3-yl)imino)dimethyl-λ^6-sulfanone], the Ki fell in the range of 10 to 1000 nM.

`CC1CCN(c2cc(-c3cnc4ccc(C(F)F)nn34)ncn2)CC1N=S(C)(C)=O` (single isomer, unassigned) [II-632, ((1-(6-(6-(Difluoromethyl)imidazo[1,2-b]pyridazin-3-yl)pyrimidin-4-yl)-4-methylpiperidin-3-yl)imino)dimethyl-λ^6-sulfanone] gave an inhibitory constant (Ki) of 10 to 1000 nM.

For `CC1CCN(c2cc(-c3cnc4ccc(C(F)F)nn34)ncn2)CC1N=S(C)(C)=O` (single isomer, unassigned) [II-633, ((1-(6-(6-(Difluoromethyl)imidazo[1,2-b]pyridazin-3-yl)pyrimidin-4-yl)-4-methylpiperidin-3-yl)imino)dimethyl-λ^6-sulfanone], the Ki fell in the range of 10 to 1000 nM.

Compound `CS(=N)(=O)CC1CCCN(c2cc(-c3cnc4ccc(C(F)F)nn34)ncn2)C1` (single isomer, unassigned) [II-636, ((1-(6-(6-(Difluoromethyl)imidazo[1,2-b]pyridazin-3-yl)pyrimidin-4-yl)piperidin-3-yl)methyl)(imino)(methyl)-λ^6-sulfanone] came in with a Ki of 10 to 1000 nM.

As for `CS(=N)(=O)CC1CCCN(c2cc(-c3cnc4ccc(C(F)F)nn34)ncn2)C1` (single isomer, unassigned) [II-637, ((1-(6-(6-(Difluoromethyl)imidazo[1,2-b]pyridazin-3-yl)pyrimidin-4-yl)piperidin-3-yl)methyl)(imino)(methyl)-λ^6-sulfanone], the Ki is 10 to 1000 nM.

In the case of `CS(=N)(=O)CC1CCCN(c2cc(-c3cnc4ccc(C(F)F)nn34)ncn2)C1` (single isomer, unassigned) [II-638, ((1-(6-(6-(Difluoromethyl)imidazo[1,2-b]pyridazin-3-yl)pyrimidin-4-yl)piperidin-3-yl)methyl)(imino)(methyl)-λ^6-sulfanone], the Ki is 10 to 1000 nM.

Compound `CS(=N)(=O)CC1CCCN(c2cc(-c3cnc4ccc(C(F)F)nn34)ncn2)C1` (single isomer, unassigned) [II-639, ((1-(6-(6-(Difluoromethyl)imidazo[1,2-b]pyridazin-3-yl)pyrimidin-4-yl)piperidin-3-yl)methyl)(imino)(methyl)-λ^6-sulfanone] came in with a Ki of 10 to 1000 nM.

In the case of `CCS(C)(=O)=NC1CC(C)CN(c2cc(-c3cnc4ccc(C(F)F)nn34)ncn2)C1` (single isomer, unassigned) [II-640, ((1-(6-(6-(Difluoromethyl)imidazo[1,2-b]pyridazin-3-yl)pyrimidin-4-yl)-5-methylpiperidin-3-yl)imino)(ethyl)(methyl)-λ^6-sulfanone], the Ki was in the range of 10 to 1000 nM.

`CCS(C)(=O)=NC1CC(C)CN(c2cc(-c3cnc4ccc(C(F)F)nn34)ncn2)C1` (single isomer, unassigned) [II-641, ((1-(6-(6-(Difluoromethyl)imidazo[1,2-b]pyridazin-3-yl)pyrimidin-4-yl)-5-methylpiperidin-3-yl)imino)(ethyl)(methyl)-λ^6-sulfanone] displayed a Ki of 10 to 1000 nM.

The compound `CCS(C)(=O)=NC1CC(C)CN(c2cc(-c3cnc4ccc(C(F)F)nn34)ncn2)C1` (single isomer, unassigned) [II-642, ((1-(6-(6-(Difluoromethyl)imidazo[1,2-b]pyridazin-3-yl)pyrimidin-4-yl)-5-methylpiperidin-3-yl)imino)(ethyl)(methyl)-λ^6-sulfanone] gave a Ki below 10 nM.

For `CCS(C)(=O)=NC1CC(C)CN(c2cc(-c3cnc4ccc(C(F)F)nn34)ncn2)C1` (single isomer, unassigned) [II-643, ((1-(6-(6-(Difluoromethyl)imidazo[1,2-b]pyridazin-3-yl)pyrimidin-4-yl)-5-methylpiperidin-3-yl)imino)(ethyl)(methyl)-λ^6-sulfanone], the Ki is below 10 nM.

As to `CC1CC(N=S(C)(=O)C2CC2)CN(c2cc(-c3cnc4ccc(C(F)F)nn34)ncn2)C1` (single isomer, unassigned) [II-644, Cyclopropyl((1-(6-(6-(difluoromethyl)imidazo[1,2-b]pyridazin-3-yl)pyrimidin-4-yl)-5-methylpiperidin-3-yl)imino)(methyl)-λ^6-sulfanone], the Ki fell in the range of 10 to 1000 nM.

On to `CC1CC(N=S(C)(=O)C2CC2)CN(c2cc(-c3cnc4ccc(C(F)F)nn34)ncn2)C1` (single isomer, unassigned) [II-645, Cyclopropyl((1-(6-(6-(difluoromethyl)imidazo[1,2-b]pyridazin-3-yl)pyrimidin-4-yl)-5-methylpiperidin-3-yl)imino)(methyl)-λ^6-sulfanone], for which the Ki lay in the range of 10 to 1000 nM.

Regarding `CC1CC(N=S(C)(=O)C2CC2)CN(c2cc(-c3cnc4ccc(C(F)F)nn34)ncn2)C1` (single isomer, unassigned) [II-646, Cyclopropyl((1-(6-(6-(difluoromethyl)imidazo[1,2-b]pyridazin-3-yl)pyrimidin-4-yl)-5-methylpiperidin-3-yl)imino)(methyl)-λ^6-sulfanone], the Ki lay within 10 to 1000 nM.
